Assay [1] has as its target T1, PDZ protein (GST-PDZ fusion) (Homo sapiens, UniProt O75970).
T1 construct: made in house; host or cells: E. coli (DH5alpha, BL21 or JM109)
As to the kind of experiment: G' assay (10 uM PL peptide), results of TABLE 7 and TABLE 12. Format: binding. An outline of the steps: (§1)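 Biotinylated PL peptides at 10 uM (vs 20 uM in G^0 assay) bound to GST-PDZ fusions; PDZ protein at 5 ug/ml unless another concentration listed. Bound peptide read as A450 nm, classified 0–5 (0 = A450 0; 5 = A450 >4 repeated).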

The target in assay [2] is T2, PDZ protein (GST-PDZ fusion) (Homo sapiens, UniProt Q5TCQ9).
T2 construct: made in house; host or cells: E. coli (DH5alpha, BL21 or JM109)
T2 sequence (Q5TCQ9 1-1481): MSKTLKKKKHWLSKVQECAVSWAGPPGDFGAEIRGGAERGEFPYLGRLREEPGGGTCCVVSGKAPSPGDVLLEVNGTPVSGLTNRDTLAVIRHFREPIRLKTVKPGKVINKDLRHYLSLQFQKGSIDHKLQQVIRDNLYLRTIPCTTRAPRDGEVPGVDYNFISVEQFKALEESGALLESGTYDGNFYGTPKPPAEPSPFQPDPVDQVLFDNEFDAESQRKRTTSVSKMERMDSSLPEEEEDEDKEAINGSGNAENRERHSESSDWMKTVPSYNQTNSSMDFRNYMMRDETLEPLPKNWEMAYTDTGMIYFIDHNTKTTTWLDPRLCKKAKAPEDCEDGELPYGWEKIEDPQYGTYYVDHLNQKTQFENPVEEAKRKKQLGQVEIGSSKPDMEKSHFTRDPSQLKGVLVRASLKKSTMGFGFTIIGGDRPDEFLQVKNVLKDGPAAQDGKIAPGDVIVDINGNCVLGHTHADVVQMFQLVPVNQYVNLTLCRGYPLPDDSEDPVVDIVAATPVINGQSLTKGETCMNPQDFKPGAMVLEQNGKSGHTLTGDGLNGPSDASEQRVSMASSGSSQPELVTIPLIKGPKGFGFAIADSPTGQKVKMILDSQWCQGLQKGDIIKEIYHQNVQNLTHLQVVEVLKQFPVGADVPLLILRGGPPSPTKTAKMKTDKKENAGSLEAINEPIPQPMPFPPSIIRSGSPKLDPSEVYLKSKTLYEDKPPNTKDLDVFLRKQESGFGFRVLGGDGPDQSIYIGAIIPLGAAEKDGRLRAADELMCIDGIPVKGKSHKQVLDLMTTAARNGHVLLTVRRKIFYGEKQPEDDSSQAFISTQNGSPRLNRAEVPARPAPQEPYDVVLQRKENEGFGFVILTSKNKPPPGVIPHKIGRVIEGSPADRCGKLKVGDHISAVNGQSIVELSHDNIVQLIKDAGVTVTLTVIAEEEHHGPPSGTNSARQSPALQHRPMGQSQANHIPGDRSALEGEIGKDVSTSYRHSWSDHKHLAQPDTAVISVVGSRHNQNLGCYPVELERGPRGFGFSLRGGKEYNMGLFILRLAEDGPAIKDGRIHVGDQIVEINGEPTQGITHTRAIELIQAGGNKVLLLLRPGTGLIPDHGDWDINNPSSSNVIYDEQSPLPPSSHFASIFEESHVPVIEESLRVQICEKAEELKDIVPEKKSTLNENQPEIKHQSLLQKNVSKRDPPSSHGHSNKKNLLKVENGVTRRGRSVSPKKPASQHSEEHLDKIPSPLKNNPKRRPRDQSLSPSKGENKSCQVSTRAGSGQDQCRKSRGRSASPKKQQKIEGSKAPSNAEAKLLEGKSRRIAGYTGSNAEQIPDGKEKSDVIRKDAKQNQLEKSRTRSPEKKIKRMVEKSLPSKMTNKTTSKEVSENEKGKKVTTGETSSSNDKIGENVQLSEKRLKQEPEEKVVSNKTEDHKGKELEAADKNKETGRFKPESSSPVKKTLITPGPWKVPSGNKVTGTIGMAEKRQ
Described as above. Format: binding. Put shortly:
as §1

Ends that are not written are not given here. Peptide text beside a SMILES is read from it. * marks the point of attachment. Biotin = O=C1N[C@H]2[C@H](CS[C@H]2CCCCC(=O)*)N1

T1 sequence (O75970 whole entry, the tested form may be a part): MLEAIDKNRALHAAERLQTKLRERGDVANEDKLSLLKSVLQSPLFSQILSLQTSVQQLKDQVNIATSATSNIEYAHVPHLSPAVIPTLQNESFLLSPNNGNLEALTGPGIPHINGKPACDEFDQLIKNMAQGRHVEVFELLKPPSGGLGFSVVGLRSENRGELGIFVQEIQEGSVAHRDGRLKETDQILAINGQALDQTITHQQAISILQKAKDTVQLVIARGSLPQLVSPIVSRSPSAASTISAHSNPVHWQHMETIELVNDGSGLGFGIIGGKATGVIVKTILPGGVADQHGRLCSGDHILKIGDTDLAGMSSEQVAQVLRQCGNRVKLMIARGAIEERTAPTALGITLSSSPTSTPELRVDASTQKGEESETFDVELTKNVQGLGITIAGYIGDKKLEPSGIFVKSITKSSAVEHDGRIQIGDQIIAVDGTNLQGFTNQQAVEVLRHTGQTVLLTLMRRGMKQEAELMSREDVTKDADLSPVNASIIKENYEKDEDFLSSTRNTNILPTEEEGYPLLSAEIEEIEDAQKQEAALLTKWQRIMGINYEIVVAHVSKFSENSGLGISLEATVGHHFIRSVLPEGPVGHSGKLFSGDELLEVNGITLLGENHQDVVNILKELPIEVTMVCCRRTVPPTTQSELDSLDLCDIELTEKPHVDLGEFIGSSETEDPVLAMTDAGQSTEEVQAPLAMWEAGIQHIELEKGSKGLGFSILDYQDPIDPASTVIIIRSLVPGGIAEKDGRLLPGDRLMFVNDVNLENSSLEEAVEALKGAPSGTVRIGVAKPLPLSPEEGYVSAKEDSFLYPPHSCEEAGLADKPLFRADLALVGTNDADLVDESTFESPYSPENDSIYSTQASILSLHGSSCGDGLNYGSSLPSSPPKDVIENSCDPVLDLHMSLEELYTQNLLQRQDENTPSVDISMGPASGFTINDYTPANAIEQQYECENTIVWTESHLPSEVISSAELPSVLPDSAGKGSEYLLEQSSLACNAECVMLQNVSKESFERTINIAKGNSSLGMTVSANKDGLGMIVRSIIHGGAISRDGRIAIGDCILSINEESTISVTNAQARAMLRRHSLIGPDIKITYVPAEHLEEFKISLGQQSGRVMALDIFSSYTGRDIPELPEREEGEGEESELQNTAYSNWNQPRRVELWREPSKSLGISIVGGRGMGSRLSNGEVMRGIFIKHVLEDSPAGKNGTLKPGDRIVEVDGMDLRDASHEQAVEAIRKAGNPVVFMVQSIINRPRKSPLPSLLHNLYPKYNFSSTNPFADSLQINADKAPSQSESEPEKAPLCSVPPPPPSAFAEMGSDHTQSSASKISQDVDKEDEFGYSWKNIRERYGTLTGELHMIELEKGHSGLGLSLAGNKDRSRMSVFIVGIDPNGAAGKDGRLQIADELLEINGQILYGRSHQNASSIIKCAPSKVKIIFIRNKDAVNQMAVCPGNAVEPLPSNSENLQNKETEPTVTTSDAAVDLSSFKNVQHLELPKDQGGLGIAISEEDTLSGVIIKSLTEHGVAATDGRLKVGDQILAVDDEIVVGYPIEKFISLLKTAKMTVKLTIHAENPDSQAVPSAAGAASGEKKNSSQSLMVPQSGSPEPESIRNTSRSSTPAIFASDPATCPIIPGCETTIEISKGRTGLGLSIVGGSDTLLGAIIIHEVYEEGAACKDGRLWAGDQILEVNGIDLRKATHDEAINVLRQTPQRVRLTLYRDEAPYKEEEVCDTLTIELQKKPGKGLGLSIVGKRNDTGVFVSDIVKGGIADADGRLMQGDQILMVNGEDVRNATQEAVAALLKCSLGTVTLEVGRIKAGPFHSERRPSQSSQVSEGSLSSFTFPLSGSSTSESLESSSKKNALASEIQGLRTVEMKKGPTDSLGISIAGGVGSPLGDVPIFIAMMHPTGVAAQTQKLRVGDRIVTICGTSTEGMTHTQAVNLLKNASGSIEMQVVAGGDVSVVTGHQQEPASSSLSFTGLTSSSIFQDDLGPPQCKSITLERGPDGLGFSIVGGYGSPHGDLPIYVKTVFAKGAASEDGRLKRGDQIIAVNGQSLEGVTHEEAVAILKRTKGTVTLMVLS

For “VHDAESSDEDGYDWGPATDL (Biotin-VHDAESSDEDGYDWGPATDL) [zona occludens 3 (ZO-3)]”, the Classification is reported as 1 (A450 nm 0-1) in assay [1] (PDZ MUPP-1, PDZ Domain 7); 1 (A450 nm 0-1) in assay [1] (PDZ MUPP-1, PDZ Domain 9); 2 (A450 nm 1-2) in assay [1] (PDZ MUPP-1, PDZ Domain 13); 1 (A450 nm 0-1) in assay [2] (PDZ KIAA1634, PDZ Domain 5).
As to `CC(C)C[C@H](NC(=O)[C@H](CCCNC(=N)N)NC(=O)CNC(=O)CNC(=O)[C@H](CCCNC(=N)N)NC(=O)[C@H](C)NC(=O)[C@@H]1CCCN1C(=O)[C@H](CCCNC(=N)N)NC(=O)CNC(=O)CNC(=O)[C@@H](NC(=O)[C@H](C)NC(=O)CCCC[C@@H]1SC[C@@H]2NC(=O)N[C@@H]21)C(C)C)C(=O)N[C@@H](CCC(N)=O)C(=O)NCC(=O)N[C@@H](CCCNC(=N)N)C(=O)N[C@@H](CCCNC(=N)N)C(=O)N[C@@H](CCC(N)=O)C(=O)N[C@H](C(=O)N[C@@H](CCC(N)=O)C(=O)N[C@H](C(=O)O)C(C)C)[C@@H](C)O` [HPV E6 58 (modified)] (Biotin-AVGGRPARGGRLQGRRQTQV-OH; C-terminus assumed), the Classification was 3 (A450 nm 2-3) in assay [1] (PDZ MUPP-1, PDZ Domain 10); 1 (A450 nm 0-1) in assay [1] (PDZ MUPP-1, PDZ Domain 13); 5 (A450 nm of 4 more than 2× repeated) in assay [2] (PDZ KIAA1634, PDZ Domain 1); 1 (A450 nm 0-1) in assay [2] (PDZ KIAA1634, PDZ Domain 2); 1 (A450 nm 0-1) in assay [2] (PDZ KIAA1634, PDZ Domain 5).
In the case of `CC[C@H](C)[C@H](NC(=O)[C@H](CO)NC(=O)[C@@H](NC(=O)[C@H](Cc1ccccc1)NC(=O)[C@H](CO)NC(=O)CCCC[C@@H]1SC[C@@H]2NC(=O)N[C@@H]21)[C@@H](C)O)C(=O)N[C@@H](CC(C)C)C(=O)N[C@H](C(=O)N[C@@H](CS)C(=O)N[C@@H](Cc1c[nH]cn1)C(=O)N[C@@H](CCC(N)=O)C(=O)N[C@@H](CCCNC(=N)N)C(=O)N[C@@H](CCCNC(=N)N)C(=O)N[C@H](C(=O)N[C@@H](CCC(N)=O)C(=O)N[C@@H](CCCNC(=N)N)C(=O)N[C@@H](CCCCN)C(=O)N[C@@H](CCC(=O)O)C(=O)N[C@H](C(=O)N[C@H](C(=O)N[C@@H](C)C(=O)O)C(C)C)[C@@H](C)O)[C@@H](C)O)[C@@H](C)O` [GluR5-2 (rat)], the Classification in assay [1] (PDZ MUPP-1, PDZ Domain 10) is given as 2 (A450 nm 1-2); in assay [1] (PDZ MUPP-1, PDZ Domain 11) it was 1 (A450 nm 0-1); in assay [2] (PDZ KIAA1634, PDZ Domain 1), 5 (A450 nm of 4 more than 2× repeated).
Regarding “APC—adenomatous polyposis coli protein (ESSGTQSPKRHSGSYLVTSV)”, the Classification in assay [1] (PDZ MUPP-1, PDZ Domain 10) was 1 (A450 nm 0-1); in assay [2] (PDZ KIAA1634, PDZ Domain 1), 1 (A450 nm 0-1); in assay [2] (PDZ KIAA1634, PDZ Domain 2) it was 1 (A450 nm 0-1).

These data come from patent US20050282743A1, “Molecular interactions in cells” (Arbor Vita Corporation, priority 2001, published 2005).
